In a melting point compilation (Tetko et al.; mined from patent text by program, amines drawn as free bases though some values may be those of a salt):

Compound | melting point [°C]
CCCCCCCCCCCCCCCCCCOc1ccc(C(=O)Nc2ccc(O)cc2)cc1 | 193
COC/C=C\c1cccc(C2(c3ccc(OC(F)F)cc3)N=C(N)N(C)C2=O)c1 (stereo not drawn) | 41 to 44
CCN(CC)C(=O)[C@H]1CN2CC[C@H]1[C@H](NCc1cc(OC)ccc1OC)[C@@H]2C(c1ccccc1)c1ccccc1 (relative stereo) | 153 to 154
Cc1ccc(-n2nc3c(cc2=O)CCc2cnccc2-3)cc1 | 188 to 189
[N-]=[N+]=NC[C@@H]1CN(c2cc(F)c(N3CNC(=O)C3)c(F)c2)C(=O)O1 | 186 to 188
COc1ccc(S(=O)(=O)C2(CCCC#Cc3cccc(N)c3)SC(=O)NC2=O)cc1 (stereo not drawn) | 135 to 138
OCC1(c2ccccc2)CCCCC1 | 63 to 64
COc1ccc(-n2nc(Sc3ccc([N+](=O)[O-])cc3)c(C)c(C#N)c2=O)cc1 | 258 to 260
Cc1nn(-c2cc(OC(C)C)c(Cl)cc2F)c(C)c1N | 94 to 96.5
COc1cc2c(cc1O)C1Cc3c(Cl)cc(OC)c(OCC(=O)O)c3CN1CC2 (stereo not drawn) | 172 to 174
CCCSc1c[nH]nc1C1=CCCN(C)C1 | 111
CCn1c(-c2c(C)cc(C)cc2C)nc(-c2ccncc2)c1-c1ccc(C)cc1 | 137 to 140
CNC(=O)/C(=N/OC)c1ccccc1COc1ccc(-c2ccccc2)cc1 | 136 to 137
Cc1ccc(-c2nc(C)c3ccccc3n2)nc1-c1ccccc1 | 141 to 143
NS(=O)(=O)c1cccc(S(=O)(=O)NC2CC2)c1 | 170 to 174
O=c1[nH]c2ccc(C3CCNCC3)cc2[nH]1 | 214 to 215
COC(=O)c1cccc(Cn2ccn(C3CCc4ccccc4C3)c2=S)c1 (stereo not drawn) | 130 to 132
COP(=O)(c1ccccc1)c1ccc2c(c1)C(NC(=NC#N)Nc1ccc(Cl)cc1)C(O)C(C)(C)O2 (stereo not drawn) | 150
CCCOc1cc([N+](=O)[O-])ccc1[N+](=O)[O-] | 52 to 54
CC[C@@H](C)[C@H](NC(=O)NCCNC(=O)OC(C)(C)C)C(=O)OC | 86 to 89
COc1ccc2c(NCCN3CCOCC3)noc2c1 | 85 to 86
OC1CSC(Oc2cncc(-c3ccc(F)c(F)c3)c2)C(O)C1O (stereo not drawn) | 198 to 203
NS(=O)(=O)c1cc(C(=O)O)cc(S)c1Cl | 263 to 264
COc1cc(C)cc(OC)c1C1=NC(NC(=O)Nc2cccc(C)c2)C(=O)N(C)c2ccccc21 (stereo not drawn) | 260
CCC(c1cc2c(-c3ccc(C(F)(F)F)n(C)c3=O)c(F)cc(Cl)c2o1)S(C)=O (stereo not drawn) | 125 to 127
N#Cc1ccc(OCc2cnsc2)cc1F | 102 to 105
NCCCCCNc1ncc2ncnc(Nc3ccc(F)c(Cl)c3)c2n1 | 153 to 155
CC(CC(=O)O)C(=O)N1CCC[C@H]1C(=O)O (stereo partly drawn) | 132 to 133

Compound | melting point [°C]
Nc1nc2[nH]c(CCCc3cc(C(=O)O)cs3)cc2c(=O)[nH]1 | 181 to 182
CC(Oc1cc(O)ccn1)C(F)(F)F (stereo not drawn) | 67 to 69
O=C1c2c(-c3ccccc3F)noc2CCC1CCCN1CCN(C(c2ccc(F)cc2)c2ccc(F)cc2)CC1 (stereo not drawn) | 95 to 97
CC/C(=N\OCCCOc1ccc(C(=O)O)c(NC(=O)c2ccc(C(F)(F)F)cc2)c1)c1ccc(C(C)(C)C)cc1 | 149 to 151
COc1cc(C2C3=C(COC3=O)Nc3ccc4nc(C)sc4c32)ccc1O (stereo not drawn) | 293 to 295
CCCCCC(=O)SC1CCN(C(C(=O)C2CC2)c2ccccc2F)CC1 (stereo not drawn) | 64 to 65
Cc1cc(F)ccc1C(=O)CCCN1CCC2(CC1)C(=O)NCN2c1ccccc1 | 180 to 182
O=C(c1ccc(-n2ccnc2)cc1)N1CCN(S(=O)(=O)c2cc3cc(Cl)ccc3o2)CC1 | 175 to 177
Cc1cc(C)cc(OCCCC(=O)O)c1 | 66 to 68.5
CCOC(=O)C(C)CNc1c(C#N)cnn1-c1c(F)c(F)c(CC)c(F)c1F (stereo not drawn) | 76 to 78
CCOc1ccc2c(=O)c(C(=O)O)cn(CCO)c2n1 | 220
O=C(O)c1nc(-c2ccc(Cl)cc2Cl)n(-c2ccc(Cl)cc2)c1CO | 138
CC(C)Oc1nc(-c2ccc(Cl)cc2)c(CCC(=O)O)o1 | 116 to 117
Cc1ccccc1C=CC=C1SC(=S)N(CC(=O)O)C1=O | 210 to 217
COc1nc2c(s1)C(=O)N(C(C)(C)C)C2=O | 63 to 66
Cc1cccc(-c2nc3cccnn3c2-c2ccnc(NC(=O)NC(C)C)c2)c1 | 193 to 195
COc1cc(N(Cc2cccnc2)c2ccc(C(=O)O)cc2)ccc1OC(F)F | 184 to 185
O=C(CCl)Nc1ccc2c(c1)CC(=O)N2 | 166 to 170
NC(=O)[C@@H]1[C@H](Nc2nc(Nc3ccc4c(c3)CCC(NCC(F)F)CC4)ncc2Cl)[C@H]2C=C[C@@H]1C2 (stereo partly drawn) | 128
Cc1cc2c(cc1CSCC(=O)O)OCO2 | 90 to 92
O=C(NCc1cccnc1)c1cc(-n2cnn(Cc3ccc(F)cc3)c2=O)[nH]n1 | 235 to 236
CC(=O)c1ccc(-c2ccc(C(=O)Nc3ccc4cc(CN5CCCC5)cnc4c3C)cc2)s1 | 194 to 195
O=C(NCCN1CCOCC1)Nc1nc2ccc(OCc3c(Cl)cccc3Cl)cc2[nH]1 | 256 to 259
CCOc1cc(C(CS(C)(=O)=O)N2C(=O)c3cccc(N(S(C)(=O)=O)S(C)(=O)=O)c3C2=O)ccc1OC (stereo not drawn) | 277 to 279
Cc1ccc(S(=O)(=O)OCC2Cc3c(Br)cccc3O2)cc1 (stereo not drawn) | 90 to 91
CCCCCCCCCCCCCCCCCc1nnc(CO)n1-c1sc(CC)cc1C(=O)c1ccc(C)cc1 | 68 to 69
C#CCOc1cc(-c2cc(C)c(C(F)(F)F)n(C)c2=O)c(F)cc1Cl | 107 to 108

Now from value to compound:

melting point [°C] | Compound
197 | CCOP(=O)(Cn1c(=O)c(=O)[nH]c2cc([N+](=O)[O-])ccc21)OCC
138 to 141 | COC(=O)Cc1cccc(CCC(CO)n2cnc(C(N)=O)c2)c1 (stereo not drawn)
138 | CN(C(=O)c1ccccc1NC(=O)CN1C(=O)c2ccccc2C1=O)c1ccccc1
47 to 48 | C=CCCC1C=CCC2=C1C(=O)C1=C(CCCC1)C2=O (stereo not drawn)
121 | Cc1cccc(C)c1NC(=O)CCN1CCN(CCCC(c2ccc(F)cc2)c2ccc(F)cc2)C(C(N)=O)C1 (stereo not drawn)
234 to 236 | Cc1nc(N2CCN(c3ccccc3)C2=O)sc1C(=O)NCc1ccccc1
132 | CC(=O)OC1CSC(Oc2cccc(-c3ccc(C)o3)c2)C(OC(C)=O)C1OC(C)=O (stereo not drawn)
267 to 270 | Cc1ccc2cccc(OCc3c(Cl)ccc(C(=O)O)c3Cl)c2n1
190 | O=CNc1cccc(C(=O)Nc2ccc(-c3ccccc3)cc2)c1O
205 | Cc1c(CC=CN2CCN3c4cc(F)ccc4CCC3C2)cnn1-c1cc(N(C)C)nc(N)n1 (stereo not drawn)
171 to 173 | NCCN1C(=O)CN(c2ccc3c(c2)OCO3)C1=O
> 200 | C=CCn1c(NCc2cccnc2)nc(N2CCc3ccccc3CC2)c(C#N)c1=O
154 to 156 | Cc1ccc2c(c1O)NC(O)C1CCCN1C2=O (stereo not drawn)
70 to 73 | CC1C[C@H]2[C@@H](O1)[C@H](N=[N+]=[N-])C(=O)N2Cc1ccccc1 (relative stereo)
> 300 | O=c1[nH]c2scc(-c3ccccc3)c2[nH]c1=O
52 to 54 | COc1cc(C(C)=O)ccc1OCCCCBr
175 | COc1ccc(CN2CCC(C(=O)O)(S(=O)(=O)c3ccc(OC)cc3)CC2)cc1
123 to 125 | C[C@H]1CN(C(=O)OC(C)(C)C)S(=O)(=O)O1
64 to 68 | COc1cc(OC)c(N2CCCC2)cc1/C=C/C(=O)c1ccc(S(=O)(=O)NCCCN2CCN(C)CC2)cc1
80 | Cc1cc([N+](=O)[O-])c(NCC(C)O)c([N+](=O)[O-])c1 (stereo not drawn)
202 to 206 | Cc1nc2c(N)nc3ccccc3c2n1CCCCCCS(C)(=O)=O
53 to 55 | CC(C)(CCCCCCCCCCOCc1ccccc1)C(=O)O

melting point [°C] | Compound
258 to 259 | Cc1cc(-c2nc3cccnn3c2-c2ccnc(NC(=O)c3cccnc3C)c2)ccc1F
102 | C1CSC(SSCCSSC2=NCCS2)=N1
79 to 87 | COCNC(=O)c1snc(Cl)c1Cl
165 to 166 | CCc1ccc(C(CC(=O)O)C(=O)O)s1 (stereo not drawn)
100 | CCCCNC(=O)[C@@H](C[C@H](O)[C@H](CC1CCCCC1)N=[N+]=[N-])C(C)C
154 | CCCn1ncnc1COc1nn2c(-c3ccc(F)cc3)nncc2c1C(C)(C)C
68 to 70 | Cc1cc(OCc2ccc(-c3ccccc3-c3nnn(C(c4ccccc4)(c4ccccc4)c4ccccc4)n3)cc2)c(CO)c(C)n1
236 to 237 | COc1cccc(CNC(=O)c2nc3onc(C)c3c(=O)[nH]2)c1
90 | O=c1cnn(-c2ccc(C(c3ccc(Cl)cc3)c3nc(-c4ccccc4)cs3)c(Cl)c2)c(=O)[nH]1 (stereo not drawn)
162 to 164 | COc1ccc2c(c1)Sc1c(cc(OC)c(O)c1Br)N2C(=O)OC(C)OC(C)=O (stereo not drawn)
176 to 178 | CNc1c(NCCSCc2ccc(CN(C)C)o2)c(=O)c1=O
218 to 220 | O=C(Nc1nccs1)c1nc(-c2cccc3ccccc23)[nH]c1-c1ccc(F)cc1
99 to 100 | O=C1CCCN1C(=O)Oc1ccc(Cl)cc1
118 to 119 | COC12CC(C)(C)C(O1)C(OC(=O)c1ccc(N)cc1)C=C2C (stereo not drawn)
145 to 146 | CCC(O)(c1cccc(O)c1)c1nccs1 (stereo not drawn)
206 to 207 | C=C[C@H]1CC(C(=O)O)=C[C@@H](OC(C)C)[C@@H]1NC(C)=O
199 to 202 | COc1ccc2[nH]c(SCc3nccc(N4CCCC4)n3)nc2c1
168 to 170 | CC(=O)NC[C@H]1CN(c2ccc(N3C[C@H]4CN(C(C)=O)C[C@H]4C3)c(F)c2)C(=O)O1
156 to 161 | O=C(Nc1ccnn1-c1c(Cl)cc(C(F)(F)F)c(Cl)c1Cl)C(Cl)Cl
212 to 214 | CC1(C)Oc2cc(C#N)sc2[C@@H](N2CCCCC2=O)[C@@H]1O (relative stereo)
136 | O=CNC(c1cccc(Cl)c1)c1ccnc2ccccc12 (stereo not drawn)
